In general, pKa refers to the negative logarithm of the acid dissociation constant. A lower pKa goes with a stronger acid or weaker base.

One data set relates to Calf thymus DNA. The settings on record: Bos taurus.
Data set [1] deals with Nucleic Acid.
Description: Association constant for binding to poly [d(G-C)]
Data set [2] has as its system Nucleic Acid. The source holds these as a separate data set.
Description: Association constant for binding to poly [d(A-T)]

The source made the active and inactive calls. The calls are words filed in the database; no cut-off is given here.

Description for Calf thymus DNA: Inhibitory concentration against ethidium binding to DNA
Description for Mus musculus: Maximum percent increase in life span of mice
Description for physchem: Ionisation constant (pKa)

Turning to `CNC(=O)Nc1ccc(Nc2c3ccccc3nc3ccccc23)cc1`, in “physchem”, the pKa stood at 7.77. In the data set with Calf thymus DNA, this compound yielded a C50 of 4.1 µM.
For `O=C(Nc1ccc(Nc2c3ccccc3nc3ccccc23)cc1)c1ccccc1`, the results for the Log K in the data set with Nucleic Acid [1] and with Nucleic Acid [2] were 6.14 and 6.2, respectively. For the same compound, in “physchem”, the pKa was found to be 7.39. Moreover, the C50 in the data set on Calf thymus DNA is 5.4 µM.
Regarding `O=[N+]([O-])c1ccccc1Nc1c2ccccc2nc2ccccc12`, the Log K with Nucleic Acid [1] was found to be 5.49; in the data set with Nucleic Acid [2] it was 5.36. Further, the ILS entry in the data set listed under Mus musculus is “inactive”. The compound further gave a C50 with Calf thymus DNA of 36 µM.
On to `Nc1cccc(Nc2c3ccccc3nc3ccccc23)c1`, for which the Log K turned out to be 6.01 with Nucleic Acid [1] and 6.11 in the data set on Nucleic Acid [2]. This compound also came in with a pKa in the data set “physchem” of 7.58. Further, the C50 with Calf thymus DNA came out at 8.6 µM.
As for `CNc1ccc(Nc2c3ccccc3nc3ccccc23)cc1`, the Log K in the data set on Nucleic Acid [1] was determined as 6.54; in the data set on Nucleic Acid [2], 6.55. In “physchem”, this compound yielded a pKa of 8.42. This compound also registered a C50 in the data set with Calf thymus DNA of 1.2 µM.
Consider `CS(=O)(=O)Nc1cccc(Nc2c3ccccc3nc3ccccc23)c1`, for which, in the data set on Nucleic Acid [1], the Log K came out at 5.86. The compound further had a C50 with Calf thymus DNA of 15 µM.
Turning to `CS(=O)(=O)Nc1ccc(Nc2c3ccccc3nc3ccccc23)cc1`, the C50 in the data set with Calf thymus DNA turned out to be 8.9 µM.
`Cc1ccc(Nc2c3ccccc3nc3ccccc23)cc1`: the Log K with Nucleic Acid [1] and with Nucleic Acid [2] was 5.99 in each case. Further, the pKa in “physchem” was 7.72. In the data set with Calf thymus DNA, this compound returned a C50 of 10 µM.
Regarding `CC(=O)Nc1cccc(Nc2c3ccccc3nc3ccccc23)c1`, the Log K was 5.96 in the data set with Nucleic Acid [1] and 5.9 with Nucleic Acid [2]. In the data set “physchem”, this compound had a pKa of 7.16. The C50 in the data set with Calf thymus DNA is 13 µM.
As to `CN(C)c1ccc(Nc2c3ccccc3nc3ccccc23)cc1`, the results for the Log K in the data set on Nucleic Acid [1] and in the data set with Nucleic Acid [2] were 6.29 and 6.51, respectively. For the same compound, the pKa in the data set “physchem” amounted to 8.46. The C50 in the data set with Calf thymus DNA was 2 µM.
Consider `Oc1ccc(Nc2c3ccccc3nc3ccccc23)cc1`, for which the results for the Log K in the data set with Nucleic Acid [1] and with Nucleic Acid [2] were 6.21 and 6.28, respectively. In the data set “physchem”, the pKa came to 7.91. The C50 in the data set on Calf thymus DNA amounted to 5.1 µM.
Consider `CCNc1ccc(Nc2c3ccccc3nc3ccccc23)cc1`, for which the Log K in the data set on Nucleic Acid [1] worked out at 6.36; in the data set with Nucleic Acid [2], 6.44. The pKa in “physchem” was 8.3. This compound gave a C50 with Calf thymus DNA of 1.7 µM.
For `CN(c1ccc(Nc2c3ccccc3nc3ccccc23)cc1)S(C)(=O)=O`, the values for the Log K in the data set with Nucleic Acid [1] and with Nucleic Acid [2] were 6 and 5.89, respectively. Besides, the C50 with Calf thymus DNA stood at 9.9 µM.
For `COc1ccccc1Nc1c2ccccc2nc2ccccc12`, the Log K with Nucleic Acid [1] stood at 5.47; in the data set with Nucleic Acid [2], 5.5. For the same compound, the pKa in “physchem” is 7.74. In the data set with Calf thymus DNA, this compound displayed a C50 of 34 µM.
The corresponding values for `Nc1ccc(S(=O)(=O)Nc2ccc(Nc3c4ccccc4nc4ccccc34)cc2)cc1` are 6.26, 6.3, 7.15 and 4.4 µM.
In the case of `O=S(=O)(Nc1ccc(Nc2c3ccccc3nc3ccccc23)cc1)c1ccccc1`, the Log K in the data set with Nucleic Acid [1] turned out to be 6.23; with Nucleic Acid [2], 6.2. The compound also gave a pKa in the data set “physchem” of 7.09. This compound returned a C50 in the data set with Calf thymus DNA of 5.7 µM.
Compound `CC(=O)Nc1ccc(Nc2c3ccccc3nc3ccccc23)cc1` gave a pKa in the data set “physchem” of 7.51. This compound registered a C50 in the data set on Calf thymus DNA of 4.7 µM.
Take `O=C(Nc1ccccc1)Nc1ccc(Nc2c3ccccc3nc3ccccc23)cc1`: the Log K in the data set on Nucleic Acid [1] was found to be 6.3; with Nucleic Acid [2] it was 6.37. The compound also had a pKa in “physchem” of 7.67. In the data set with Calf thymus DNA, this compound showed a C50 of 3.8 µM.
The corresponding values for `Nc1ccc(Nc2c3ccccc3nc3ccccc23)cc1` are 6.23, 6.31, 8.36 and 2.3 µM.
For `COC(=O)c1ccc(Nc2c3ccccc3nc3ccccc23)cc1`, the Log K in the data set with Nucleic Acid [1] came out at 5.86; in the data set with Nucleic Acid [2], 5.88. This compound also had a C50 in the data set with Calf thymus DNA of 15 µM.
In the data set with Nucleic Acid [1], `COC(=O)Nc1ccc(Nc2c3ccccc3nc3ccccc23)cc1` came in with a Log K of 6.23. The pKa in “physchem” came to 7.64. In the data set with Calf thymus DNA, the C50 stood at 5.3 µM.

The values above are taken from ChEMBL document CHEMBL1121781, “Potential antitumor agents. 34. Quantitative relationships between DNA binding and molecular structure for 9-anilinoacridines substituted in the anilino ring” (J Med Chem, 1981).
